Results taken from patent publication US20130065834A1, “MODULATORS OF PROTEASOME ACTIVITY” (SALK INSTITUTE FOR BIOLOGICAL STUDIES, priority 2011, published 2013).
“Also recorded” adds a separate entry of the source. Residues, ends and D or L forms follow the SMILES beside them. *: point of attachment. Cbz = O=C(OCc1ccccc1)*

Experiments:
[1] = system: chymotrypsin-like activity of the proteasome; assay: 26S proteasome fluorogenic peptidase assay in worm lysate, chymotrypsin-like (Z-GGL-AMC / Suc-LLVY-AMC); format: biochemical, C. elegans; settings: worms at 25° C., 100 μg ml^−1 for the first three days of adulthood; FIG. 11
Description: (§1) 26S proteasome activity assays. In vitro 26S proteasome activity assays were performed as previously described [Finley, D. Recognition and processing of ubiquitin-protein conjugates by the proteasome. Annual review of biochemistry 78, 477-513 (2009)]. Worms were lysed in proteasome activity assay buffer (50 mM Tris-HCl pH 7.5, 250 mM sucrose, 5 mM MgCl2, 0.5 mM EDTA, 2 mM ATP and 1 mM dithiothreitol) using a Precellys 24 homogenizer (Bertin technologies). Lysate was centrifuged at 10,000 g for 15 min at 4° C. 25 μg of total protein lysate was transferred to a 96-well microtiter plate (BD Falcon) and incubated with fluorogenic substrate. Fluorescence (380-nm excitation, 460-nm emission) was monitored on a microplate fluorometer (Infinite M1000, Tecan) every 5 min for 1 h at 25° C.
(§2) 26S proteasome fluorogenic peptidase assays. […] Methods in enzymology 398, 364-378 (2005)]. Briefly, worms were lysed in proteasome activity assay buffer (50 mM Tris-HCl pH 7.5, 250 mM sucrose, 5 mM MgCl2, 0.5 mM EDTA, 2 mM ATP and 1 mM dithiothreitol) using a Precellys 24 homogenizer (Bertin technologies). Lysate was centrifuged at 10,000 g for 15 min at 4° C. For each experiment, 25 μg of total protein lysate was transferred to a 96-well microtiter plate (BD Falcon) then fluorogenic substrate was added. For measuring the chymotrypsin-like activity of the proteasome either Z-Gly-Gly-Leu-AMC (Enzo) or Suc-Leu-Leu-Val-Tyr-AMC (Enzo) was used. Z-Leu-Leu-Glu-AMC (Enzo) was used to measure the caspase-like activity of the proteasome and Ac-Arg-Leu-Arg-AMC for the proteasome trypsin-like activity. Fluorescence (380-nm excitation, 460-nm emission) was monitored on a microplate fluorometer (Infinite M1000, Tecan) every 5 min for 1 h at 25° C.

[2] = target: T1, chymotrypsin-like activity of the proteasome (Caenorhabditis elegans, UniProt Q9XUV0); assay: as above; format: biochemical, C. elegans; settings: inhibitor 20 min prior to substrate, vs DMSO
T1 construct: worms were lysed in proteasome activity assay buffer; from tissue; host or cells: whole-worm lysate of adult C. elegans (N2, glp-1(e2141), fer-15;fem-1, daf-16;glp-1, rpn-6.1 OE and RNAi-fed strains)
T1 sequence (Q9XUV0 65-284): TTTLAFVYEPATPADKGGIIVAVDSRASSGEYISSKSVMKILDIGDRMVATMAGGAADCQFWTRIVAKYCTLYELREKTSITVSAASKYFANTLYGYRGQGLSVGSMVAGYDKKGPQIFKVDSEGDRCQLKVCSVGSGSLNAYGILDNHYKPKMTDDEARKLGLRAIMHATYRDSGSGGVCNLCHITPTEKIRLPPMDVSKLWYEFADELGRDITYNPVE
Description: as §1, §2

[3] = target: T2, chymotrypsin-like activity of the proteasome (Homo sapiens, UniProt P28074); assay: 26S proteasome fluorogenic peptidase assay in human cell extracts, chymotrypsin-like; format: biochemical; settings: H9 hESCs; 62.5 nM for 24 hours; vs DMSO
T2 construct: 15-25 μg of total protein of cell lysates were transferred to a 96-well microtiter plate; endogenous in cells; host or cells: H9 and HUES-6 hESCs and derived NPCs, neurons, trophoblasts and fibroblasts; BJ fibroblasts, astrocytes, HEK293T
T2 sequence (P28074 60-263): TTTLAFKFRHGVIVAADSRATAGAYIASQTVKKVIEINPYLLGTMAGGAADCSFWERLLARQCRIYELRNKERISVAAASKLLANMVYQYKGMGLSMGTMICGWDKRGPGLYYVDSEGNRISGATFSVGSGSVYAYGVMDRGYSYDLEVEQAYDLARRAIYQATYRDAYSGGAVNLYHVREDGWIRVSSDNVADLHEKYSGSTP
Description: 26S proteasome fluorogenic peptidase assays. In vitro assay of 26S proteasome activities was performed as previously described (Kisselev, A. F. & Goldberg, A. L., Methods in enzymology 398, 364-378 (2005)). Cells were collected in proteasome activity assay buffer (50 mM Tris-HCl (pH 7.5), 250 mM sucrose, 5 mM MgCl2, 0.5 mM EDTA, 2 mM ATP and 1 mM dithiothreitol) and lysed by passing 10 times through a 27 gauge needle attached to a 1 ml syringe. Lysate was centrifuged at 10,000 g for 10 min at 4° C. 15-25 μg of total protein of cell lysates were transferred to a 96-well microtiter plate (BD Falcon) and then the fluorogenic substrate was added to lysates. For measuring the chymotrypsin-like activity of the proteasome Applicants used either Z-Gly-Gly-Leu-AMC (Enzo) or Suc-Leu-Leu-Val-Tyr-AMC (Enzo). Applicants used Z-Leu-Leu-Glu-AMC (Enzo) to measure the caspase-like activity of the proteasome and Ac-Arg-Leu-Arg-AMC for the proteasome trypsin-like activity. Fluorescence (380-nm excitation, 460-nm emission) was monitored on a microplate fluorometer (Infinite M1000, Tecan) every 5 min for 1 h at 25° C. Protein concentration of the cell homogenates was determined using the BCA protein assay (Pierce).

H9 hESCs = assay: quantitative RT-PCR in H9 hESCs; format: cell-based, human; settings: 62.5 nM 24 h, relative to DMSO
Description: Lentiviral infection of human stem cells. hESC colonies growing on Matrigel were incubated with mTesR1 medium containing 10 μM ROCK inhibitor (Y-27632) for one hApplicants' and individualized using Accutase 1×. 5×10^5 cells were infected in suspension with 10 μl of concentrated lentivirus in the presence of 10 μM ROCK inhibitor. Cell suspension was centrifuged to remove virus, passed through a mesh of […] to obtain individual cells and plated back on a feeder layer of fresh MEFs in hESC cell media supplemented with 10 μM ROCK inhibitor. After a few days in culture, small hES cell colonies arose. For LV-GFP and LV-shFOXOs stable lines, GFP positive colonies were selected and manually passaged onto fresh MEFs to establish new hESC cell lines. For LV-non-targeting shRNA, shPSMD11, shPSMC2, FOXO4 OE, FOXO4 AAA OE and PSMD11 OE stable lines, Applicants performed 1 μg/ml puromycin resistance selection during 3 days and then colonies were manually passaged onto fresh MEFs to establish new hESC cell lines. […]
RNA isolation and quantitative RT-PCR. Total RNA was extracted using RNAbee (Tel-Test Inc). cDNA was created using the Quantitect Reverse Transcriptase kit (Qiagen). […] Data was analyzed with the comparative 2ΔΔCt method using β-actin and GAPDH as housekeeping genes. […]

[4] = system: polyubiquitinylated proteins, proteasome subunits, transcription factors; assay: Western blot of human cell extracts; format: cell-based; settings: H9 hESCs; 62.5 nM 24 h
Description: Western Blot. For analysis of proteasome subunits, cells were collected in proteasome activity assay buffer supplemented with protease inhibitors (Roche) and lysed by passing 10 times through a 27 gauge needle attached to a 1 ml syringe. Lysate was centrifuged at 10,000 g for 10 min at 4° C. Protein concentration of the cell homogenates was determined using the BCA protein assay (Pierce). For analysis of transcription factor and polyubiquitinylated proteins, cells were harvested from tissue culture plates by cell scraping and lysed in protein cell lysis buffer (10 mM Tris-Cl pH7.4, 10 mM EDTA, 50 mM NaCl, 50 mM NaF, 1% Triton X-100, 0.1% SDS supplemented with 2 mM sodium orthovanadate, 1 mM PMSF and Complete Mini Protease and PhosSTOP inhibitor cocktail mix) for 2 hrs at 1,000 rpm and 4° C. in a Thermomixer. Protein concentrations were determined with a standard Bradford protein assay (BioRad). 20-50 μg of total protein were separated by SDS-PAGE, transferred to nitrocellulose membranes (Whatman) and subjected to immunoblotting. […]

hESCs = assay: MG-132 treatment of cultured cells, cell death and detachment; format: cell-based, human; settings: hESCs vs NPCs or neurons; data not shown
[5] = fer-15(b26);fem-1(hc17) worm lysate

| SMILES | proteasome activity in treated worms [1] | chymotrypsin-like proteasome activity (Z-GGL-AMC) [2, 5] | chymotrypsin-like proteasome activity (Z-GGL-AMC) ([2]; glp-1(e2141) worm lysate) | proteasome activity in hESCs [3] | pluripotency markers (Real Time PCR) (H9 hESCs) | polyubiquitinylated proteins [4] | sensitivity to proteasome inhibition (cell death and detachment) (hESCs) |
| --- | --- | --- | --- | --- | --- | --- | --- |
| O=c1[nH]c(=O)n([C@H]2C[C@H](O)[C@@H](CO)O2)cc1F [FUdR, 5-fluoro-2′ deoxyuridine] | did not affect proteasome activity | – | – | – | – | – | – |
| CC(C)C[C@@H](C=O)NC(=O)[C@H](CC(C)C)NC(=O)[C@H](CC(C)C)NC(=O)OCc1ccccc1 [MG-132] (Cbz-Leu-Leu-Leu-aldehyde) | – | blocked activity from extracts; also recorded: blocked chymotrypsin-like proteasome activity | blocked activity from extracts; also recorded: blocked chymotrypsin-like proteasome activity | sufficient to reduce proteasome activity; also recorded: dramatically decreases proteasome activity | decreased pluripotency markers; also recorded: induces a decrease in pluripotency markers | induces accumulation of polyubiquitinylated proteins | hESCs were more sensitive to proteasome inhibition than NPCs or neurons |
| CC(=O)N[C@@H](CSC(=O)[C@]1([C@@H](O)C(C)C)NC(=O)[C@H](C)[C@@H]1O)C(=O)O [lactacystin] | – | blocked activity from extracts; also recorded: blocked chymotrypsin-like proteasome activity | blocked activity from extracts; also recorded: blocked chymotrypsin-like proteasome activity | – | – | – | – |
